Publication PMC7311426, “An amphipathic peptide with antibiotic activity against multidrug-resistant Gram-negative bacteria” (Nature Communications, 2020)
≈ marks a conversion by molar mass, not a printed value.

Experiments:
[1] = test system: P. aeruginosa; conditions: P. aeruginosa ATCC 27853; quality control range printed beside broth microdilution MIC of parent strain; cited from earlier work
[2] = test system: P. aeruginosa; assay: microbe, parasite or virus in culture
Summary of the method: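 Broth microdilution in MHB, 2-fold 12-point series from 128 or 64 down to 0.06 or 0.03 μg mL^−1, 5 × 10^5 CFU mL^−1. Extra runs in CAMHB per CLSI and in MHB with 1% agarose; n ≥ 6.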

Compound: NC[C@H]1O[C@H](O[C@H]2[C@H](O)[C@@H](O[C@H]3O[C@H](CO)[C@@H](O)[C@H](N)[C@H]3O)[C@H](N)C[C@@H]2N)[C@H](N)C[C@@H]1O [TOB]
- MIC Quality control range [1]: 0.25 to 1 µg/mL
- MIC, broth microdilution ([2]; P. aeruginosa ATCC 27853 parent strain not exposed to drug): 0.5 µg/mL (≈ 1.07 µM)
- MIC, broth microdilution ([2]; P. aeruginosa ATCC 27853 spontaneous mutant, AA139 selection 4X, plate 1, colony 1, drug-free passage 1): 1 µg/mL (≈ 2.14 µM)
- MIC, broth microdilution ([2]; P. aeruginosa ATCC 27853 spontaneous mutant, AA139 selection 4X, plate 1, colony 1, drug-free passage 5): 0.5 µg/mL (≈ 1.07 µM)
- MIC, broth microdilution ([2]; P. aeruginosa ATCC 27853 spontaneous mutant, AA139 selection 4X, plate 1, colony 2, drug-free passage 1): 0.5, 0.5 µg/mL
- MIC, broth microdilution ([2]; P. aeruginosa ATCC 27853 spontaneous mutant, AA139 selection 4X, plate 1, colony 2, drug-free passage 5): 0.5, 0.5 µg/mL
- MIC, broth microdilution ([2]; P. aeruginosa ATCC 27853 spontaneous mutant, AA139 selection 4X, plate 1, colony 3, drug-free passage 1): 0.5, 0.5 µg/mL
- MIC, broth microdilution ([2]; P. aeruginosa ATCC 27853 spontaneous mutant, AA139 selection 4X, plate 1, colony 3, drug-free passage 5): 0.5, 0.5 µg/mL
- MIC, broth microdilution ([2]; P. aeruginosa ATCC 27853 spontaneous mutant, AA139 selection 4X, plate 1, colony 4, drug-free passage 1): 0.5, 0.5 µg/mL
- MIC, broth microdilution ([2]; P. aeruginosa ATCC 27853 spontaneous mutant, AA139 selection 4X, plate 1, colony 4, drug-free passage 5): 0.5, 0.5 µg/mL
- MIC, broth microdilution ([2]; P. aeruginosa ATCC 27853 spontaneous mutant, AA139 selection 4X, plate 1, colony 5, drug-free passage 1): 1 µg/mL (≈ 2.14 µM)
- MIC, broth microdilution ([2]; P. aeruginosa ATCC 27853 spontaneous mutant, AA139 selection 4X, plate 1, colony 5, drug-free passage 5): 0.5 µg/mL (≈ 1.07 µM)
- MIC, broth microdilution ([2]; P. aeruginosa ATCC 27853 spontaneous mutant, AA139 selection 4X, plate 1, colony 6, drug-free passage 1): 1 µg/mL (≈ 2.14 µM)
- MIC, broth microdilution ([2]; P. aeruginosa ATCC 27853 spontaneous mutant, AA139 selection 4X, plate 1, colony 6, drug-free passage 5): 0.5 µg/mL (≈ 1.07 µM)
- MIC, broth microdilution ([2]; P. aeruginosa ATCC 27853 spontaneous mutant, AA139 selection 4X, plate 2, colony 1, drug-free passage 1): 0.5, 0.5 µg/mL
- MIC, broth microdilution ([2]; P. aeruginosa ATCC 27853 spontaneous mutant, AA139 selection 4X, plate 2, colony 1, drug-free passage 5): 0.5, 0.5 µg/mL
- MIC, broth microdilution ([2]; P. aeruginosa ATCC 27853 spontaneous mutant, AA139 selection 4X, plate 2, colony 2, drug-free passage 1): 0.5, 0.5 µg/mL
- MIC, broth microdilution ([2]; P. aeruginosa ATCC 27853 spontaneous mutant, AA139 selection 4X, plate 2, colony 2, drug-free passage 5): 0.5, 0.5 µg/mL
- MIC, broth microdilution ([2]; P. aeruginosa ATCC 27853 spontaneous mutant, AA139 selection 4X, plate 2, colony 3, drug-free passage 1): 1 µg/mL (≈ 2.14 µM)
- MIC, broth microdilution ([2]; P. aeruginosa ATCC 27853 spontaneous mutant, AA139 selection 4X, plate 2, colony 3, drug-free passage 5): 0.5 µg/mL (≈ 1.07 µM)
- MIC, broth microdilution ([2]; P. aeruginosa ATCC 27853 spontaneous mutant, AA139 selection 4X, plate 2, colony 4, drug-free passage 1): 1 µg/mL (≈ 2.14 µM)
- MIC, broth microdilution ([2]; P. aeruginosa ATCC 27853 spontaneous mutant, AA139 selection 4X, plate 2, colony 4, drug-free passage 5): 0.5 µg/mL (≈ 1.07 µM)
- MIC, broth microdilution ([2]; P. aeruginosa ATCC 27853 spontaneous mutant, AA139 selection 8X, plate 1, colony 1, drug-free passage 1): 1 µg/mL (≈ 2.14 µM)
- MIC, broth microdilution ([2]; P. aeruginosa ATCC 27853 spontaneous mutant, AA139 selection 8X, plate 1, colony 1, drug-free passage 5): 0.5 µg/mL (≈ 1.07 µM)
- MIC, broth microdilution ([2]; P. aeruginosa ATCC 27853 spontaneous mutant, AA139 selection 8X, plate 1, colony 2, drug-free passage 1): 1 µg/mL (≈ 2.14 µM)
- MIC, broth microdilution ([2]; P. aeruginosa ATCC 27853 spontaneous mutant, AA139 selection 8X, plate 1, colony 2, drug-free passage 5): 0.5 µg/mL (≈ 1.07 µM)
- MIC, broth microdilution ([2]; P. aeruginosa ATCC 27853 spontaneous mutant, AA139 selection 8X, plate 1, colony 3, drug-free passage 1): 1 µg/mL (≈ 2.14 µM)
- MIC, broth microdilution ([2]; P. aeruginosa ATCC 27853 spontaneous mutant, AA139 selection 8X, plate 1, colony 3, drug-free passage 5): 0.5 µg/mL (≈ 1.07 µM)
- MIC, broth microdilution ([2]; P. aeruginosa ATCC 27853 spontaneous mutant, AA139 selection 8X, plate 1, colony 4, drug-free passage 1): 1 µg/mL (≈ 2.14 µM)
- MIC, broth microdilution ([2]; P. aeruginosa ATCC 27853 spontaneous mutant, AA139 selection 8X, plate 1, colony 4, drug-free passage 5): 0.5 µg/mL (≈ 1.07 µM)
- MIC, broth microdilution ([2]; P. aeruginosa ATCC 27853 spontaneous mutant, AA139 selection 8X, plate 1, colony 5, drug-free passage 1): 0.5, 0.5 µg/mL
- MIC, broth microdilution ([2]; P. aeruginosa ATCC 27853 spontaneous mutant, AA139 selection 8X, plate 1, colony 5, drug-free passage 5): 0.5, 0.5 µg/mL
- MIC, broth microdilution ([2]; P. aeruginosa UNT 138-1 parent strain not exposed to drug): 0.5 µg/mL (≈ 1.07 µM)
- MIC, broth microdilution ([2]; P. aeruginosa UNT 138-1 spontaneous mutant, AA139 selection 4X, plate 1, colony 1, drug-free passage 1): 1, 1 µg/mL
- MIC, broth microdilution ([2]; P. aeruginosa UNT 138-1 spontaneous mutant, AA139 selection 4X, plate 1, colony 1, drug-free passage 5): 1, 1 µg/mL
- MIC, broth microdilution ([2]; P. aeruginosa UNT 138-1 spontaneous mutant, AA139 selection 4X, plate 1, colony 2, drug-free passage 1): 0.5, 0.5 µg/mL
- MIC, broth microdilution ([2]; P. aeruginosa UNT 138-1 spontaneous mutant, AA139 selection 4X, plate 1, colony 2, drug-free passage 5): 0.5, 0.5 µg/mL
- MIC, broth microdilution ([2]; P. aeruginosa UNT 138-1 spontaneous mutant, AA139 selection 4X, plate 1, colony 3, drug-free passage 1): 1 µg/mL (≈ 2.14 µM)
- MIC, broth microdilution ([2]; P. aeruginosa UNT 138-1 spontaneous mutant, AA139 selection 4X, plate 1, colony 3, drug-free passage 5): 0.5 µg/mL (≈ 1.07 µM)
- MIC, broth microdilution ([2]; P. aeruginosa UNT 138-1 spontaneous mutant, AA139 selection 4X, plate 1, colony 4, drug-free passage 1): 0.5, 0.5 µg/mL
- MIC, broth microdilution ([2]; P. aeruginosa UNT 138-1 spontaneous mutant, AA139 selection 4X, plate 1, colony 4, drug-free passage 5): 0.5, 0.5 µg/mL
- MIC, broth microdilution ([2]; P. aeruginosa UNT 138-1 spontaneous mutant, AA139 selection 4X, plate 1, colony 5, drug-free passage 1): 1 µg/mL (≈ 2.14 µM)
